Columns and labels:
BAX K21E = target: T1, BAX K21E (Homo sapiens, UniProt Q07812, K21E); assay: Liposomal permeabilization assay, trigger site mutant K21E; type: biochemical; conditions: 250 nM BAX and 5 nM tBID
T1 construct: Human full-length (1-192) wild-type BAX (Q07812); made in house; host or cells: E. coli BL21 (DE3) CodonPlus (DE3)-RIPL
Method: Lipids (Avanti Polar Lipids) at the following ratio, phosphatidylcholine 48%, phosphatidylinositol 10%, dioleoyl phosphatidylserine 10%, phosphatidylethanolamine, 28%, and tetraoleoyl cardiolipin 4%, were mixed in a total of 1 mg, dried and resuspended in 10 mM HEPES, pH 7, 200 mM KCI, and 5 mM MgCl2 with 12.5 mM 8-aminonaphthalene-1,3,6-trisulfonic acid (ANTS) dye and 45 mM p-xylene-bis-pyridinium bromide (DPX) quencher (Molecular Probes) using a water bath sonicator. Liposomes were formed by extrusion of the suspension using Avanti Mini-Extruder (Cat # 610000) with polycarbonate membranes of 0.1 µm pore size (Avanti Polar Lipids). […] ANTS/DPX release was quantified based on the increase in fluorescence intensity that occurs when the ANTS fluorophore is separated from the DPX quencher upon release from the liposomes into solution. Fluorescence (λex = 355 nm and λem = 520 nm) was measured at 1 minute intervals at room temperature (22-25° C.) indicated using a Tecan Infinite M1000 plate reader. In the case of heat activation, reactions were set up as described in the absence of tBID or BIM, and experiments were recorded at 42° C. The percentage release of ANTS/DPX at any given time point was calculated as percentage release=((F-F0)/(F100-F0))(100), where F0 and F100 are baseline and maximal fluorescence, respectively. […]

BAX = target: T2, BAX (Homo sapiens, UniProt Q07812); assay: BAX conformation change assay using anti-6A7 immunoprecipitation; type: biochemical; conditions: BAX 10 µM, 4 equivalents BIM-BH3, 5 or 10 equivalents EO
T2 construct: Human full-length (1-192) wild-type BAX (Q07812); made in house; host or cells: E. coli BL21 (DE3) CodonPlus (DE3)-RIPL
T2 sequence (Q07812 whole entry): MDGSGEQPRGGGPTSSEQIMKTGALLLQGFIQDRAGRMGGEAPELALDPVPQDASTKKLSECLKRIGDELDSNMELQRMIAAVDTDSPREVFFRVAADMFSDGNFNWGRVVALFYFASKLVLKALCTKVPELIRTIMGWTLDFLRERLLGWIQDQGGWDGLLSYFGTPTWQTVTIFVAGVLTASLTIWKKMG
Method: Exposure of the 6A7 epitope of BAX was assessed by immunoprecipitation with a 6A7-domain-specific antibody purchased from Santa Cruz (SC-23959). Protein G beads (50 µL, Santa Cruz) were washed three times with 3% BSA in PBS and incubated with 15 µL 6A7 antibody at 4° C. for 1 hr. Recombinant full-length BAX (10 µM) was incubated with 4 equivalents of BIM-BH3 peptide alone and in the presence of 5 or 10 equivalents of EO for 15 min at room temperature. Incubation of full-length recombinant BAX with 0.1% Triton X served as a positive control for exposure of the 6A7 epitope. After incubation, 10 µL of each reaction was transferred to the protein G beads pre-loaded with the anti-6A7 antibody, and 1 µL was reserved as a loading control. After 90 minutes of incubation at 4° C. beads were collected and washed three times with […] of 3% BSA in PBS and solubilized with 25 µL LDS/DTT loading buffer. Samples were resolved by SDS-PAGE electrophoresis and western blot analysis with an anti-BAX yth-2D2 antibody (Invitrogen).
Prior to permeabilizing membranes, activated BAX must first translocate to the membrane (Lovell, J. F. et al. Cell 135, 1074-1084, (2008)). To explore this earlier step in BAX activation, an NBD-fluorescence-based translocation assay was used. […]

3T3 cells = assay: Cell viability assay (CellTiter-Glo), ABT-263 + S63845; type: cell-based, murine; conditions: 1 µM ABT-263 and 1 µM S63845, 24 hr
Method: 3T3 cells were maintained in media identical to that of MEFs. 3T3 cells were seeded (1×10^4 cells/well) in 96-well opaque plates for 18-24 hr. The media was removed and replaced with media lacking FBS, and cells were treated with EO as a 10X stock in H2O at the indicated doses for 2 hr before addition of 10% FBS. Cells were then treated with 1 µM each of ABT-263 and S63845. Caspase 3/7 activation was measured at 4 hr by addition of the Caspase-Glo 3/7 chemiluminescence reagent in accordance with the manufacturer’s protocol (Promega). Luminescence was detected by an F200 PRO microplate reader (TECAN). Percentage caspase activation was normalized to ABT-263 + S63845 alone (100%) and untreated cells (0%). Viability assays were performed at 24 hr by addition of CellTiter-Glo according to the manufacturer’s protocol (Promega). Luminescence was detected by an F200 PRO microplate reader (TECAN). Percentage viability was normalized to untreated cells (100%).
Next, whether EO is capable of rescuing cell death in cells expressing both BAX and BAK was determined. 3T3 cells, a murine fibroblast cell line, were treated with a combination of BH3-mimetics navitoclax (ABT-263) and S63845, which only in combination cause significant cytotoxicity in fibroblast cells.

[1] = cited from earlier work

T1 sequence (Q07812 whole entry K21E): as the sequence (Q07812 whole entry) above, with K21E counted along it

CC1=NN(c2ccc(C)c(C)c2)C(=O)/C1=N\Nc1cccc(-c2cccc(C(=O)O)c2)c1O [EO, eltrombopag]
inhibition of liposomal release versus BAX WT (BAX K21E): not reduced inhibition | BIM-BH3 induced 6A7 epitope exposure (BAX): inhibited | cell viability (3T3 cells): dose-dependent rescue of cell viability | time of peak concentration ([1]; after oral administration): 2 to 6 h | oral bioavailability ([1]; in vivo, po): excellent oral bioavailability | half-life ([1]; oral administration): 21 to 32 h
